Measured values from US20260242416A1, “ANTIMICROBIAL PEPTIDES” (priority 2023, published 2026).
≈ marks a conversion by molar mass, not a printed value. Like-named read-outs stand apart in the source and are kept apart here. Where a SMILES comes first, the peptide text is derived from it.

Tests used:
E. coli ATCC 25922 = format: cell-based, Escherichia coli
Method in brief: (§1)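 MIC taken as lowest peptide level showing no visible growth after 20-24 h at 37° C. Twofold series 128-0.5 μg/mL in Mueller-Hinton broth, polypropylene plates, final inoculum 2-8×10^5 cfu/mL, per CLSI with cationic-peptide adaptations.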

[1] = system: Salmonella enterica serovar Enteritidis (human clinical isolate); format: cell-based
Method in brief: as §1

S. aureus ATCC 29213 = format: cell-based, Staphylococcus aureus
Method in brief: as §1

[2] = system: E. coli ATCC 25922, Salmonella Enteritidis, S. aureus ATCC 29213; test: Broth microdilution, panel result (at least one / all strains), Example 2; format: cell-based; set-up: key to inhibitory activity (asterisk): *Indicates inhibitory activity; details: for inhibitory activity (asterisk): Table 14, against at least one of E. coli ATCC 25922, Salmonella Enteritidis, S. aureus ATCC 29213
Method in brief: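 CLSI broth microdilution adapted for cationic peptides, in MHB with a final inoculum of 2-8×10^5 cfu/mL in polypropylene plates. Peptides were serially diluted from 128 down to 0.5 μg/mL and incubated 20-24 h at 37° C. MIC is the lowest concentration with no visible growth.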

[3] = serovar Enteritidis (human clinical isolate)

Compound: CC[C@H](C)[C@H](NC(=O)CNC(=O)[C@H](CO)NC(=O)[C@@H](NC(=O)[C@H](CC(C)C)NC(=O)CN)[C@@H](C)CC)C(=O)N[C@@H](CC(C)C)C(=O)NCC(=O)N[C@@H](C)C(=O)NCC(=O)N[C@@H](CCCCN)C(=O)N[C@@H](CCCCN)C(=O)N[C@H](C(=O)N[C@@H](CC(C)C)C(=O)N[C@@H](CS)C(=O)O)C(C)C [OdMa9, GLISGILGAGKKVLC] (H-GLISGILGAGKKVLC-OH; N-terminus and C-terminus assumed)
- MIC (ug/mL) E. coli (E. coli ATCC 25922; ATCC 25922): 64 to 128 µg/mL
- MIC (ug/mL) S. Enteritidis [1, 3]: 128 µg/mL (≈ 89.6 µM)
- MIC (ug/mL) S. aureus (S. aureus ATCC 29213; ATCC 29213): > 128 µg/mL
- inhibitory activity (asterisk) [2]: 68.* GLISGILGAGKKVLC

Compound: CC[C@H](C)[C@H](NC(=O)CNC(=O)[C@H](CO)NC(=O)[C@@H](NC(=O)[C@H](CC(C)C)NC(=O)CN)[C@@H](C)CC)C(=O)N[C@@H](CC(C)C)C(=O)NCC(=O)N[C@@H](C)C(=O)NCC(=O)N[C@@H](CCCCN)C(=O)N[C@@H](CCCCN)C(=O)N[C@H](C(=O)N[C@@H](CC(C)C)C(=O)N[C@@H](CS)C(=O)NCC(=O)N[C@@H](CC(C)C)C(=O)N[C@@H](CO)C(=O)NCC(=O)N[C@@H](CC(C)C)C(=O)N[C@@H](CS)C(=O)O)C(C)C [OdMa10] (H-GLISGILGAGKKVLCGLSGLC-OH; N-terminus and C-terminus assumed)
- MIC (ug/mL) E. coli (E. coli ATCC 25922; ATCC 25922): 16 to 32 µg/mL
- MIC (ug/mL) S. Enteritidis [1, 3]: > 128 µg/mL
- MIC (ug/mL) S. aureus (S. aureus ATCC 29213; ATCC 29213): 64 to 128 µg/mL
- inhibitory activity (asterisk) [2]: 1094.* GLISGILGAGKKVLCGLSGLC

Compound: CC[C@H](C)[C@H](NC(=O)CN)C(=O)N[C@@H](CC(C)C)C(=O)N[C@@H](CO)C(=O)NCC(=O)N[C@@H](CC(C)C)C(=O)N[C@@H](CC(C)C)C(=O)NCC(=O)N[C@@H](C)C(=O)NCC(=O)N[C@@H](CCCCN)C(=O)N[C@@H](CCCCN)C(=O)N[C@@H](CC(C)C)C(=O)N[C@@H](C)C(=O)N[C@@H](CS)C(=O)NCC(=O)N[C@@H](CC(C)C)C(=O)N[C@H](C(=O)NCC(=O)N[C@@H](CC(C)C)C(=O)N[C@@H](CS)C(=O)O)[C@@H](C)CC [OdTo1] (H-GILSGLLGAGKKLACGLIGLC-OH; N-terminus and C-terminus assumed)
- MIC (ug/mL) E. coli (E. coli ATCC 25922; ATCC 25922): 8 µg/mL (≈ 4.09 µM)
- MIC (ug/mL) S. Enteritidis [1, 3]: 32 to 64 µg/mL
- MIC (ug/mL) S. aureus (S. aureus ATCC 29213; ATCC 29213): 8 to 16 µg/mL
- inhibitory activity (asterisk) [2]: 153.* GILSGLLGAGKKLACGLIGLC

Compound: CC[C@H](C)[C@H](NC(=O)CN)C(=O)N[C@@H](Cc1ccccc1)C(=O)NCC(=O)NCC(=O)N[C@@H](Cc1c[nH]cn1)C(=O)N[C@@H](CC(C)C)C(=O)N[C@@H](CCCCN)C(=O)N[C@H](C(=O)NCC(=O)N[C@@H](CCCCN)C(=O)N[C@@H](CCCCN)C(=O)N[C@H](C(=O)N[C@@H](C)C(=O)N[C@@H](CS)C(=O)NCC(=O)N[C@@H](CC(C)C)C(=O)N[C@@H](CO)C(=O)NCC(=O)N[C@@H](CC(C)C)C(=O)N[C@@H](CS)C(=O)O)[C@@H](C)CC)C(C)C [OdTo2] (H-GIFGGHLKVGKKIACGLSGLC-OH; N-terminus and C-terminus assumed)
- MIC (ug/mL) E. coli (E. coli ATCC 25922; ATCC 25922): 32 µg/mL (≈ 15.5 µM)
- MIC (ug/mL) S. Enteritidis [1, 3]: > 128 µg/mL
- MIC (ug/mL) S. aureus (S. aureus ATCC 29213; ATCC 29213): > 128 µg/mL
- inhibitory activity (asterisk) [2]: 139.* GIFGGHLKVGKKIACGLSGLC

Compound: CC[C@H](C)[C@H](NC(=O)CN)C(=O)N[C@@H](Cc1ccccc1)C(=O)NCC(=O)NCC(=O)N[C@@H](CC(C)C)C(=O)N[C@@H](CC(C)C)C(=O)N[C@@H](CCCCN)C(=O)N[C@@H](CCC(=O)O)C(=O)NCC(=O)N[C@@H](CCCCN)C(=O)N[C@@H](CCCCN)C(=O)N[C@H](C(=O)N[C@@H](C)C(=O)N[C@@H](CS)C(=O)NCC(=O)N[C@@H](CC(C)C)C(=O)N[C@@H](CO)C(=O)NCC(=O)N[C@@H](CC(C)C)C(=O)N[C@@H](CS)C(=O)O)[C@@H](C)CC [OdTo3] (H-GIFGGLLKEGKKIACGLSGLC-OH; N-terminus and C-terminus assumed)
- MIC (ug/mL) E. coli (E. coli ATCC 25922; ATCC 25922): 32 µg/mL (≈ 15.5 µM)
- MIC (ug/mL) S. Enteritidis [1, 3]: > 128 µg/mL
- MIC (ug/mL) S. aureus (S. aureus ATCC 29213; ATCC 29213): > 128 µg/mL
- inhibitory activity (asterisk) [2]: 141.* GIFGGLLKEGKKIACGLSGLC

Compound: CC(C)C[C@H](NC(=O)CNC(=O)[C@H](CO)NC(=O)[C@@H](NC(=O)[C@@H](NC(=O)[C@H](CS)NC(=O)[C@H](CC(C)C)NC(=O)[C@@H](NC(=O)[C@H](CCCCN)NC(=O)[C@H](CCCCN)NC(=O)CNC(=O)[C@@H](NC(=O)CNC(=O)[C@H](CC(C)C)NC(=O)[C@@H](NC(=O)[C@H](CCCCN)NC(=O)CNC(=O)[C@H](CC(C)C)NC(=O)[C@H](CC(C)C)NC(=O)CN)C(C)C)C(C)C)C(C)C)C(C)C)C(C)C)C(=O)N[C@@H](CS)C(=O)O [PeNi2] (H-GLLGKVLGVGKKVLCVVSGLC-OH; N-terminus and C-terminus assumed)
- MIC (ug/mL) E. coli (E. coli ATCC 25922; ATCC 25922): 4 µg/mL (≈ 1.96 µM)
- MIC (ug/mL) S. Enteritidis [1, 3]: 16 to 32 µg/mL
- MIC (ug/mL) S. aureus (S. aureus ATCC 29213; ATCC 29213): 4 µg/mL (≈ 1.96 µM)
- inhibitory activity (asterisk) [2]: 395.* GLLGKVLGVGKKVLCVVSGLC

Compound: CC[C@H](C)[C@H](NC(=O)CN)C(=O)N[C@@H](Cc1ccccc1)C(=O)N[C@@H](CO)C(=O)N[C@@H](CC(C)C)C(=O)N[C@H](C(=O)N[C@@H](CCCCN)C(=O)NCC(=O)N[C@@H](C)C(=O)N[C@@H](C)C(=O)N[C@@H](CCCCN)C(=O)N[C@H](C(=O)N[C@H](C(=O)N[C@@H](C)C(=O)N[C@@H](CCCCN)C(=O)NCC(=O)N[C@@H](CC(C)C)C(=O)NCC(=O)O)C(C)C)C(C)C)[C@@H](C)CC [PeNi3, GIFSLIKGAAKVVAKGLG] (H-GIFSLIKGAAKVVAKGLG-OH; N-terminus and C-terminus assumed)
- MIC (ug/mL) E. coli (E. coli ATCC 25922; ATCC 25922): 16 to 32 µg/mL
- MIC (ug/mL) S. Enteritidis [1, 3]: 64 to 128 µg/mL
- MIC (ug/mL) S. aureus (S. aureus ATCC 29213; ATCC 29213): 64 to 128 µg/mL
- inhibitory activity (asterisk) [2]: 1096.* GIFSLIKGAAKVVAKGLG

Compound: CC(C)C[C@H](NC(=O)CN)C(=O)N[C@@H](CC(C)C)C(=O)NCC(=O)N[C@@H](CCCCN)C(=O)N[C@H](C(=O)N[C@@H](CC(C)C)C(=O)NCC(=O)N[C@H](C(=O)NCC(=O)N[C@@H](CCCCN)C(=O)N[C@@H](CCCCN)C(=O)N[C@H](C(=O)N[C@@H](CC(C)C)C(=O)N[C@@H](CS)C(=O)O)C(C)C)C(C)C)C(C)C [PeNi4, GLLGKVLGVGKKVLC] (H-GLLGKVLGVGKKVLC-OH; N-terminus and C-terminus assumed)
- MIC (ug/mL) E. coli (E. coli ATCC 25922; ATCC 25922): 8 to 16 µg/mL
- MIC (ug/mL) S. Enteritidis [1, 3]: 4 to 8 µg/mL
- MIC (ug/mL) S. aureus (S. aureus ATCC 29213; ATCC 29213): 4 to 8 µg/mL
- inhibitory activity (asterisk) [2]: 424.* GLLGKVLGVGKKVLC

Compound: C[C@H](NC(=O)CN)C(=O)N1CCC[C@H]1C(=O)N[C@@H](CCCCN)C(=O)NCC(=O)N[C@@H](CS)C(=O)N[C@@H](Cc1c[nH]c2ccccc12)C(=O)N[C@H](C(=O)N[C@@H](CCCCN)C(=O)N[C@@H](CO)C(=O)N[C@@H](Cc1ccc(O)cc1)C(=O)N1CCC[C@H]1C(=O)N1CCC[C@H]1C(=O)N[C@@H](CCCCN)C(=O)N1CCC[C@H]1C(=O)N[C@@H](CS)C(=O)N[C@@H](CO)C(=O)NCC(=O)N[C@@H](CCCCN)C(=O)N[C@@H](CCCNC(=N)N)C(N)=O)[C@@H](C)O [PeNi12] (H-GAPKGCWTKSYPPKPCSGKR-NH2; N-terminus and C-terminus assumed)
- MIC (ug/mL) E. coli (E. coli ATCC 25922; ATCC 25922): >128/>128/>128 ug/mL
- MIC (ug/mL) S. Enteritidis [1, 3]: >128/>128/>128 ug/mL
- MIC (ug/mL) S. aureus (S. aureus ATCC 29213; ATCC 29213): >128/>128/>128 ug/mL
- spectrum of antimicrobial activity ([2]; panel of E. coli, Salmonella Enteritidis, S. aureus, up to 128 μg/mL): non-inhibitory against the panel of bacteria at the concentrations tested

Compound: CC[C@H](C)[C@H](N)C(=O)N[C@@H](CO)C(=O)N[C@H](C(=O)N[C@@H](CCCCN)C(=O)N[C@@H](CCC(=O)O)C(=O)N[C@@H](C)C(=O)N[C@@H](CC(C)C)C(=O)N[C@@H](CCC(=O)O)C(=O)N[C@@H](Cc1c[nH]cn1)C(=O)N[C@@H](CO)C(=O)N[C@@H](Cc1ccccc1)C(=O)N[C@@H](Cc1ccccc1)C(=O)N[C@@H](Cc1c[nH]cn1)C(=O)N[C@H](C(=O)N[C@H](C(=O)N1CCC[C@H]1C(=O)N[C@@H](CCCNC(=N)N)C(=O)N[C@@H](CCCCN)C(=O)N[C@@H](Cc1c[nH]c2ccccc12)C(=O)N[C@@H](CS)C(=O)N[C@@H](CCCCN)C(=O)N[C@@H](CCCCN)C(=O)N[C@@H](Cc1c[nH]cn1)C(=O)O)C(C)C)[C@@H](C)O)[C@@H](C)CC [PoSn1] (H-ISIKEALEHSFFHTVPRKWCKKH-OH)
- MIC (ug/mL) E. coli (E. coli ATCC 25922; ATCC 25922): 64/>128/>128 ug/mL
- MIC (ug/mL) S. Enteritidis [1, 3]: 64/>128/>128 ug/mL
- MIC (ug/mL) S. aureus (S. aureus ATCC 29213; ATCC 29213): 64/>128/>128 ug/mL
- inhibitory activity (asterisk) [2]: 936.* ISIKEALEHSFFHTVPRKWCKKH

Compound: CC[C@H](C)[C@H](NC(=O)[C@H](CO)NC(=O)[C@H](CC(C)C)NC(=O)[C@H](CO)NC(=O)[C@H](CCCCN)NC(=O)[C@H](CC(C)C)NC(=O)[C@H](C)NC(=O)[C@@H](N)[C@@H](C)O)C(=O)N[C@@H](CC(C)C)C(=O)N[C@@H](CCCCN)C(=O)N[C@@H](CCCCN)C(=O)N[C@@H](CC(C)C)C(=O)N[C@@H](C)C(=O)N[C@@H](CCCCN)C(=O)N[C@@H](CC(C)C)C(=O)N[C@@H](CC(N)=O)C(=O)N[C@@H](CCSC)C(=O)O [PoSn2, TALKSLSILKKLAKLNM] (H-TALKSLSILKKLAKLNM-OH; N-terminus and C-terminus assumed)
- MIC (ug/mL) E. coli (E. coli ATCC 25922; Table 14, first value of the cell, three independent experiments, highest concentration tested 128): 64 to 128 µg/mL
- MIC (ug/mL) S. Enteritidis ([1]; Table 14, second value of the cell, three independent experiments, highest concentration tested 128): > 128 µg/mL
- MIC (ug/mL) S. aureus (S. aureus ATCC 29213; Table 14, third value of the cell, three independent experiments, highest concentration tested 128): > 128 µg/mL
- inhibitory activity (asterisk) [2]: 942.* TALKSLSILKKLAKLNM
